Laboratory results taken from publication PMC5618191 (Toxins, 2017).
Read-outs that look alike come from different tables or passages of the source.

Columns and labels:
[1] = tested on: GH354 cervix adenocarcinoma cells; experiment: Cell viability assay (MTT, 72 h); assay type: cell-based, human; conditions: GH354, sparse (5–10% confluency)
Procedure: (§1) For the cell lines KB-3-1 and SW480 2 × 10^3 cells, for NIH/3T3, CT-26, HaCaT, and GH354 cells 3 × 10^3 cells and for ME-180 and SW620 cells 4 × 10^3 cells were seeded into 96-well pates and incubated at 37 °C (5% CO2) overnight. […] For higher cell confluency, NIH/3T3, CT-26, HaCaT, KB-3-1, and SW480 cells were grown to a cell density of approximately 50–60% before treatment. […] The percentage of viable cells was detected after incubation with 3-(4,5-dimethylthiazol-2-yl)-2,5-diphenyltetrazolium bromide (MTT) at 37 °C for 1–4 h, depending on the cell line, according to the user manual (EZ4U, Biomedica, Vienna, Austria). […] All experiments were conducted using full-growth media with 10% FBS in triplicate and repeated three times. The cell confluency was analyzed by Image J 1.50i (NIH, New York, NY, USA).

[2] = tested on: SW620 colon metastasis cells; experiment: Cell viability assay (MTT, 72 h); assay type: cell-based, human
Procedure: as §1

[3] = tested on: ME-180 cervix metastasis cells; experiment: Cell viability assay (MTT, 72 h); assay type: cell-based, human; conditions: ME-180, sparse (5–10% confluency)
Procedure: as §1

[4] = tested on: KB-3-1 cervix carcinoma cells; experiment: Cell viability assay (MTT, 72 h); assay type: cell-based, human
Procedure: as §1

[5] = tested on: HaCaT non-malignant keratinocytes; experiment: Cell viability assay (MTT, 72 h); assay type: cell-based, human
Procedure: as §1

[6] = tested on: KB-3-1-derived tumor xenografts; experiment: KB-3-1 xenograft mouse model; assay type: in vivo, CB-17/SCID mice
Procedure: For the allograft experiment, 4 × 10^5 CT-26 cells were resuspended in 50 µL RPMI medium and injected subcutaneously into the right flank of eight, 6–8 weeks old, male BALB/c mice that were obtained from Harlan Laboratories (San Pietro al Natisone, Italy). Likewise, in the xenograft experiment, 1 × 10^6 KB-3-1 cells in 50 µL RPMI medium were injected subcutaneously into the right flank of eight, 6–8 weeks old, male CB-17/IcrHanHsd-Prkdc severe combined immunodeficiency (SCID) mice. Of each group, four animals were randomly assigned to the control or to the treatment group. […] All animals were kept under pathogen-free conditions and all procedures were performed in a laminar flow hood. Effects of the treatment were assessed by daily recording of tumor size with a microcaliper and parameters indicating the animals’ overall health condition (e.g., body weight, fatigue, grooming, ragged coat, food and fluid consumption). Tumor volumes (mm^3) were calculated using the formula: (length × width^2)/2. […] The tumor mass was weighed and organs and tissues for immunohistochemical experiments were fixed in 4% formalin/PBS (Roti®-Histofix 4%, Roth, Karlsruhe, Germany) or shock-frozen in liquid nitrogen and stored at −80 °C until the samples were prepared for LC-MS/MS analysis. The experiments were approved by the ethics committee of the Austrian Federal Ministry of Science, Research, and Economy (BMWF-66.009/0084-II/3b/2013, date of approval: 5 September 2013) and performed in line with the Arrive guidelines for animal care and protection and with guidelines from the Austrian Animal Science Association and from the Federation of European Laboratory Animal Science Associations (FELASA).
From each mouse from both the control (n = 4) and the treatment group (n = 4), tissue samples were formalin-fixed, paraffin-embedded and used to prepare serial 3 µm sections. Then, slices were deparaffinized and rehydrated. To evaluate the percentages of interphase/resting, mitotic and dead (apoptotic/necrotic) cell fractions in tumor specimens, sections were stained with hematoxylin and eosin (H/E) by means of standard protocols. Numbers of the three cell fractions were analyzed in a blinded setup in at least four images of H/E-stained tumor sections, taken under a 40 × objective microscope lens. In addition, for the quantification of areas of dead tumor tissue in whole tumor sections, the H/E-stained slides were scanned with a Pannoramic MIDI automated slide scanner (3[…], Budapest, Hungary) and evaluated using Definiens’ TissueStudio® 4.0 (Definiens®, Munich, Germany) software and Pannoramic Viewer (3[…]) software. To evaluate the fraction of apoptotic cells in tumor sections a terminal deoxynucleotidyl transferase (TdT) deoxyuridine triphosphate (dUTP) nick end labeling (TUNEL) assay was performed applying the In Situ Cell Death Kit TMR (red) (Roche Diagnostics, Mannheim, Germany) according to the manufacturer’s protocol. Afterwards, slides were covered with Vectashield anti-fade mounting medium with DAPI (H-1200, Vector Laboratories, Burlingame, CA, USA). Slides were protected from light until they were scanned with a Pannoramic MIDI automated slide scanner (3[…]) and analyzed via digital image analysis software (Definiens’ TissueStudio® 4.0, Definiens®). In order to visualize the proliferative cell fraction (cells in the interphase or M-phase) of tumors, KB-3-1 tumor sections were stained with the Ki-67 (clone MiB-1) antibody from DAKO (1:100; Glostrup, Denmark) and for CT-26 tumor sections with Ki-67 (1:100; D3B5, rabbit, Cell Signaling, Danvers, USA). The primary antibody was incubated for 30 min at room temperature in a humid chamber and after rinsing the slides for 3 min in PBS + 0.1% Tween, the UltraVision LP detection system was applied according to the manufacturer’s instructions (Thermo Fisher Scientific, Massachusetts, MA, USA). Sections were counterstained with hematoxylin. […]

[7] = tested on: NIH/3T3 murine non-malignant fibroblasts; experiment: Cell viability assay (MTT, 72 h); assay type: cell-based, mouse
Procedure: as §1

[8] = tested on: CT-26 murine colon carcinoma cells; experiment: Cell viability assay (MTT, 72 h); assay type: cell-based, mouse
Procedure: as §1

[9] = SW620, sparse (5–10% confluency), 72 h
[10] = KB-3-1, sparse (5–10% confluency)
[11] = NIH/3T3, sparse (5–10% confluency), 72 h
[12] = CT-26, sparse (5–10% confluency), 72 h

beauvericin
Mean IC25 ± SD [1]: 2.2 ± 0.6 µM | Mean IC75 ± SD [1]: 6.3 ± 2.1 µM | IC50 ([1]; read-out: Mean IC50 ± SD): 3.6 ± 1.2 µM | Mean IC25 ± SD [2, 9]: 0.3 ± 0.02 µM | Mean IC75 ± SD [2, 9]: 1.9 ± 0.2 µM | IC50 ([2]; SW620, sparse (5–10% confluency), 72 h, read-out: Mean IC50 ± SD): 700 ± 100 nM | IC50 of SW620 lower as compared to SW480 ([2]; sparse conditions): 4.7 fold | IC50 of SW620 lower than normal HaCaT cells ([2]; sparse conditions): 5.6 fold | Mean IC25 ± SD [3]: 1.6 ± 0.8 µM | Mean IC75 ± SD [3]: 4.5 ± 1.2 µM | IC50 ([3]; read-out: Mean IC50 ± SD): 2200 ± 700 nM | IC50 ([4]; KB-3-1, higher density (50–60% confluency), read-out: IC50 value): 4.3 µM | Mean IC25 ± SD [4, 10]: 2.6 ± 0.9 µM | Mean IC75 ± SD [4, 10]: 3.6 ± 0.9 µM | IC50 ([4]; KB-3-1, sparse (5–10% confluency), read-out: Mean IC50 ± SD): 3.1 ± 0.7 µM | IC50 ([5]; higher density (50–60% confluency), read-out: IC50 value): > 10 µM | Mean IC25 ± SD ([5]; sparse (5–10% confluency)): 2.7 ± 0.2 µM | Mean IC75 ± SD ([5]; sparse (5–10% confluency)): 4.8 ± 0.7 µM | IC50 ([5]; sparse (5–10% confluency), read-out: Mean IC50 ± SD): 3.9 ± 0.4 µM | Mean tumor weight lowered ([6]; 5 mg/kg bw/day, day 16, vs control, p = 0.152): 31.2% | Reduction in tumor volume ([6]; 5 mg/kg bw/day, two cycles, day 16): 31.3% | Percentages of apoptotic/necrotic cells within viable areas (H/E) ([6]; treated vs control): almost no difference | Increase of TUNEL-positive cells ([6]; treated vs control, p = 0.143): 1.5 fold | Increase of proportion of necrotic areas in H/E-stained whole tumor sections ([6]; treated vs control, significant): 34.2% | Ki-67-positive cells ([6]; treatment group, tumor sections, control 99.5 ± 0.6%): 98.8 ± 0.6% | Mitotic cells in H/E-stained tumor sections ([6]; treatment group, control 1.5 ± 0.4%): 1.3 ± 0.3% | Viability of non-malignant cells ([7]; 1 µM, higher density (50–60%), murine models): no reduction of viability | IC50 ([7]; NIH-3T3, higher density (50–60% confluency), 72 h, read-out: IC50 value): 9.4 µM | Mean IC25 ± SD [7, 11]: 1.2 ± 0.6 µM | Mean IC75 ± SD [7, 11]: 6.5 ± 0.7 µM | IC50 ([7]; NIH/3T3, sparse (5–10% confluency), 72 h, read-out: Mean IC50 ± SD): 3.1 ± 0.2 µM | IC50 higher for non-malignant NIH/3T3 as compared to CT-26 ([7]; sparse conditions): 1.7 fold | IC75 higher for non-malignant NIH/3T3 as compared to CT-26 ([7]; sparse conditions): 2.4 fold | Tumor cell viability ([8]; 0.5 µM, higher density (50–60%), murine models): significantly reduced | Mean IC25 ± SD [8, 12]: 1.4 ± 0.2 µM | Mean IC75 ± SD [8, 12]: 2.7 ± 0.5 µM | IC50 ([8]; CT-26, sparse (5–10% confluency), 72 h, read-out: Mean IC50 ± SD): 1800 ± 200 nM
